Values quoted from earlier work as cited in US7816357B2, “Azabicyclic heterocycles as cannabinoid receptor modulators” (Bristol-Myers Squibb Company, priority 2003, dated 2010).

System: human subjects
Conditions: 16 week trial period, published Phase IIb data

SMILES: Cc1c(C(=O)NN2CCCCC2)nn(-c2ccc(Cl)cc2Cl)c1-c1ccc(Cl)cc1 [SR-141716]
- body weight in human subjects: dose-dependently reduced body weight
